Measurements as given in PMC5320518, “Novel Liver-targeted conjugates of Glycogen Phosphorylase Inhibitor PSN-357 for the Treatment of Diabetes: Design, Synthesis, Pharmacokinetic and Pharmacological Evaluations” (Scientific Reports, 2017).
Read-outs that look alike come from different tables or passages of the source.

Columns and labels:
[1] = molecular target: T1, rabbit muscle GPa (RMGPa) (Oryctolagus cuniculus, UniProt P00489); experiment: RMGPa inhibition assay (phosphate release from glucose-1-phosphate); assay type: biochemical; conditions: mean ± S.D. of three determinations; NI means no inhibition
T1 sequence (P00489 2-843 limits assumed): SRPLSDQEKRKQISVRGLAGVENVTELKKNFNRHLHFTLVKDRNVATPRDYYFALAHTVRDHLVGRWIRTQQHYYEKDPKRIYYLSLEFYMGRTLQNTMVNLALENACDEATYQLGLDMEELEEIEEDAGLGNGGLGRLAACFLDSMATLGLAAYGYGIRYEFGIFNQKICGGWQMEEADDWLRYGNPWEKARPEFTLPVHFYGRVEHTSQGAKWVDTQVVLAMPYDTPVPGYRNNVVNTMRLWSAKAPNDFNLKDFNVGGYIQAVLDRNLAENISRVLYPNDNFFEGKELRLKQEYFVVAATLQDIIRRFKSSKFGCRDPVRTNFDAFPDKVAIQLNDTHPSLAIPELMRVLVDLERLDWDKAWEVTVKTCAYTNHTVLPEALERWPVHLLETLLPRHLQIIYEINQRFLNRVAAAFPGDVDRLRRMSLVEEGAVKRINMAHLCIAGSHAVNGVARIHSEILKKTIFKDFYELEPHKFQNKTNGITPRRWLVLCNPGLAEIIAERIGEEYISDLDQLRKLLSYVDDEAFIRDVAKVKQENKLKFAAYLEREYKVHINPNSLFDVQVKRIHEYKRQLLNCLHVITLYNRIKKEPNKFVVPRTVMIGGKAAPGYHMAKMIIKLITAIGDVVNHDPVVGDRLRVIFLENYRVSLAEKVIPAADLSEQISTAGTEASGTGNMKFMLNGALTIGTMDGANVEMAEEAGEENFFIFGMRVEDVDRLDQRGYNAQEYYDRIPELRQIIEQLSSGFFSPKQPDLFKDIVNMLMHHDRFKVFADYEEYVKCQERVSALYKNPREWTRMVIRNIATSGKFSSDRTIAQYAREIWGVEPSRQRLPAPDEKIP
Protocol: All the compounds were evaluated for their inhibitory activity against rabbit muscle GPa (RMGPa). The activity of RMGPa was measured through detecting the release of phosphate from glucose-1-phosphate in the direction of glycogen synthesis. CP-91149, a well-known allosteric GP inhibitor, which shares the same binding site with PSN-357, was used as the positive control and the results are summarized in Table 1[21]. […] This remarkable loss of activity was probably due to the direct steric interference by such bulky substituent of cholic acid group. […] The results is consistent with the SARs of PSN-357 that the hydroxyl of piperidine is not an essential group for the GP inhibitory activity that could be modified slightly.
The inhibitory activity of the test compounds against rabbit muscle glycogen phosphorylase a (GPa) was monitored using microplate reader (BIO-RAD) based on the published method. In brief, GPa activity was measured in the direction of glycogen synthesis by the release of phosphate from glucose-1-phosphate. Each test compound was dissolved in DMSO and diluted at different concentrations for IC50 determination. The enzyme was added into 100 μL of buffer containing 50 mM Hepes (pH = 7.2), 100 mM KCl, 2.5 mM MgCl2, 0.5 mM glucose-1-phosphate, 1 mg/mL glycogen and the test compound in 96-well microplates (Costar). After the addition of 150 μL of 1 M HCl containing 10 mg/mL ammonium molybdate and 0.38 mg/mL malachite green, reactions were run at 22 °C for 25 min, and then the phosphate absorbance was measured at 655 nm. The IC50 values were estimated by fitting the inhibition data to a dose-dependent curve using a logistic derivative equation.

[2] = system: isolated rat hepatocytes; experiment: Glycogenolysis inhibition in isolated rat hepatocytes; assay type: cell-based; conditions: mean ± S.D. of three, NI means no inhibition
Description: (§1) To evaluate the effects of all compounds in cells, the glycogenolysis assays were established in both rat and human liver cells based on the published method. […] The inhibitory activities of the derivatives of PSN-357 (e.g. 25–28) were also explored. It is not surprising that the derivatives still retained micromolar inhibitory activities. Introduction of steric bulks to the hydroxyl group (e.g. 33, 40, 42, 48) led to a complete loss of activity. Data analysis indicated no clear SAR for the substitutents in the cell-based assays.
(§2) The inhibition of hepatic glycogenolysis was monitored by the measurement of liver glycogen, which was done quantitatively by the anthrone reagent (Sigma) colorimetric method based on the published method. Isolated rat hepatocytes or HepG2 cells (Sigma) were treated with the test compound or DMSO solvent (final concentration, 0.10%), followed by 60-min incubation with 0.3 nM glucagon (GGN). Assays were terminated by centrifugation, and cells were digested with 30% KOH followed by glycogen determination. The IC50 values were estimated by fitting the inhibition data to a dose-dependent curve using a logistic derivative equation.

[3] = system: HepG2 cells; experiment: Glycogenolysis inhibition in HepG2 cells; assay type: cell-based, human; conditions: HepG2 cells, 60-min incubation with 0.3 nM glucagon, mean ± S.D. of three, NI means no inhibition, read-out: IC50 (glycogenolysis inhibition, HepG2 cells)
Description: as §1, §2

[4] = Stability in simulated gastric fluid (SGF); assay type: in vitro ADME; conditions: SGF pH 1.21 with pepsin, 2 μM, 37 °C; for stability in SGF (in words): 24 h incubation
Protocol: (§3) All the conjugates were tested for their chemical and metabolic stability in multiple assays, including simulated gastric fluid (SGF), simulated interstinal fluid (SIF), mouse plasma, and mouse liver microsome (MLM).
(§4) For the stability in SGF (Fig. 8) and SIF (Fig. 9), the conjugates could be divided into three groups: (1) stable conjugates 2, 6 and 9. […] The two conjugates were degraded within 6 h and 1 h in SGF and SIF, respectively, with alomost no conjugates at the end of the 24 h incubation in both SGF and SIF; (3) complicated conjugates 3, 4, 5 and 8.
(§5) The simulated gastrointestinal fluids were prepared according to USP specifications. For SGF, NaCl (0.12 g) and pepsin (0.18 g, from porcine stomach mucosa) was dissolved in HCl (0.42 mL) and sufficient H2O was added to make 60 mL. The pH of the test solution was determined as 1.21 by pH meter. For the SIF, KH2PO4 (0.408 g) and pancreatin (0.6 g, from porcine pancreas) was dissolved in H2O (60 mL). The pH of the test solution was determined as 6.79 by pH meter. Each test compound was dissolved in DMSO and diluted to a final concentration of 2 μM in SIF and SGF. The final concentrations of DMSO and CH3CN in the incubation mixture were 0.2% and 0.45%. Aliquots of these solutions were pipetted into glass tubes, and placed in a 37 °C shaking water bath. Test samples at corresponding time point (1, 2, 6, 24 h) were removed at the end of incubation time and immediately mixed with 800 μL of cold acetonitrile containing 500 ng/mL tolbutamide (internal standard). Samples were subjected to centrifuge at 4000 rpm, 4 °C for 20 min. Aliquots 60 μL of supernatant was combined with 120 μL water for LC-MS/MS analysis.

[5] = Stability in simulated intestinal fluid (SIF); assay type: in vitro ADME; conditions: for time within which degraded in SIF: SIF pH 6.79 with pancreatin, 2 μM, 37 °C
Protocol: as §3, §4, §5

[6] = Stability in mouse liver microsomes (MLM); assay type: in vitro ADME; conditions: for CLint scaled at 10 μM / half-life at 10 μM / microsomal CLint at 10 μM: C57BL/6, pH 7.4, n = 3
Protocol: Additionally, the compounds’ stability in microsome were evaluated by measuring the rate of compounds consumpation in MLM and the results are shown in Table 3.
The microsomal pellet was suspended in potassium phosphate buffer (100 mM, pH 7.4), 10 μM test compound or positive control (diclofenac) was added. Liver microsomes from C57BL/6 mice (BD Gentest) were pooled. The mixture of microsome solution and compound was incubated at 37 °C for about 10 min in the presence of a NADPH-regenerating system, consisting of 0.02 M DL-isocitric acid (trisodium salt), 0.1 mg/mL isocitrate dehydrogenase and 1 mM NADPH. The addition of ice-cold CH3CN (including 100 ng/mL tolbutamide as internal standard) terminated the reaction. The mixture was vortexed for approx (30 s), centrifuged (20 min, 4000 rpm) and the supernatant was collected and analysed by LC-MS/MS method.

[7] = Stability in mouse plasma; assay type: in vitro ADME; conditions: 2 μM, 37 °C, 120-min test
Protocol: Frozen plasma from male C57 BL/6 mice was incubated for 5 min at 37 °C before the addition of the test compound. Then prepared 2 μM incubation sample, and aliquots of the incubation mixtures (100 μL) were taken at predetermined time points (10, 30, 60, 120 min) at 37 °C. After incubation, the mixtures was added 400 μL of 50% ACN/50% MeOH containing internal standard (IS, 200 ng/mL Tolbutamide and 20 ng/mL Buspirone) to each sample tube and then centrifuged at 13000 rpm for 8 min. Blank incubations in the absence of the test compound were also performed. The analyses of test compounds were performed by LC-MS/MS analysis.

[8] = system: skeletal muscle function; set-up: method as in PMID 16046314, PMID 16731853; conditions: prolonged (60 min) muscle contraction, perfused rat hindlimb model; cited from earlier work
[9] = Rattus norvegicus, Hepatocyte, 1 h, read-out: IC50 (glycogenolysis inhibition, rat hepatocytes), isolated rat hepatocytes, 60-min incubation with 0.3 nM glucagon

Row | Molecule | IC50 [1] | IC50 [2, 9] | IC50 ([3]; Homo sapiens, HepG2, 1 h) | stability in SGF (in words) [4] | fraction degraded during 24 h incubation in SIF [5] | CLint scaled at 10 μM [6] | half-life at 10 μM [6] | microsomal CLint at 10 μM [6] | melting point | IC50 (RMGPa inhibition) [1] | time within which degraded in SIF [5] | degradation in mouse plasma [7] | time within which degraded in SGF [4] | metabolic stability in MLM (in words) [6] | IC50 ([2]; read-out: IC50 (glycogenolysis inhibition, rat hepatocytes), isolated rat hepatocytes, 60-min incubation with 0.3 nM glucagon) | IC50 [3] | greater muscle fatigue than the control group [8]
1 | C[C@H](CCC(=O)N(C)CC(=O)OC1CCN(C(=O)[C@H](Cc2ccc(F)cc2)NC(=O)c2cc3cc(Cl)ncc3[nH]2)CC1)[C@H]1CC[C@H]2[C@@H]3[C@H](O)C[C@@H]4C[C@H](O)CC[C@]4(C)[C@H]3C[C@H](O)[C@]12C [Conjugate 2] | 26 ± 13.9 µM | 845 ± 132 µM | 172 ± 18.2 µM | stable | no more than 20% | 220 mL/min/kg | 24.9 min | 55.6 µL/min/mg | 183 to 185 °C | – | – | – | – | – | – | – | –
2 | CC(C)[C@H](NC(=O)CC[C@@H](C)[C@H]1CC[C@H]2[C@@H]3[C@H](O)C[C@@H]4C[C@H](O)CC[C@]4(C)[C@H]3C[C@H](O)[C@]12C)C(=O)OC1CCN(C(=O)[C@H](Cc2ccc(F)cc2)NC(=O)c2cc3cc(Cl)ncc3[nH]2)CC1 [Conjugate 4] | – | – | – | relatively stable | – | 150 mL/min/kg | 36.5 min | 38 µL/min/mg | 185 to 187 °C | no activity | ≤ 1 h | approximately 4% | – | – | – | – | –
3 | C[C@H](CCC(=O)N[C@@H](CO)C(=O)OC1CCN(C(=O)[C@H](Cc2ccc(F)cc2)NC(=O)c2cc3cc(Cl)ncc3[nH]2)CC1)[C@H]1CC[C@H]2[C@@H]3[C@H](O)C[C@@H]4C[C@H](O)CC[C@]4(C)[C@H]3C[C@H](O)[C@]12C [Conjugate 5] | 81.9 ± 14.4 µM | – | – | relatively stable | – | 135 mL/min/kg | 40.8 min | 34 µL/min/mg | 175 to 177 °C | – | ≤ 1 h | – | – | – | – | – | –
4 | CC(NC(=O)C(NC(=O)CCC(C)C1CCC2C3C(O)CC4CC(O)CCC4(C)C3CC(O)C12C)C(C)C)C(=O)OC1CCN(C(=O)C(Cc2ccc(F)cc2)NC(=O)c2cc3cc(Cl)ncc3[nH]2)CC1 (stereo not drawn) [Conjugate 7] | 6.07 ± 0.27 µM | 42.1 ± 10.9 µM | 11.7 ± 3.8 µM | – | – | 1180 mL/min/kg | 4.7 min | 297 µL/min/mg | – | – | ≤ 1 h | – | ≤ 6 h | – | – | – | –
5 | CC(CCC(=O)NC(Cc1ccccc1)C(=O)NC(CCCCN)C(=O)OC1CCN(C(=O)C(Cc2ccc(F)cc2)NC(=O)c2cc3cc(Cl)ncc3[nH]2)CC1)C1CCC2C3C(O)CC4CC(O)CCC4(C)C3CC(O)C12C (stereo not drawn) [Conjugate 8] | 10.7 ± 5.6 µM | 64.5 ± 4.4 µM | 36.8 ± 4.14 µM | relatively stable | – | 64.2 mL/min/kg | 85.6 min | 16.2 µL/min/mg | – | – | ≤ 1 h | – | – | considerable metabolic stability | – | – | –
6 | C[C@H](CCC(=O)NCCNC(=O)c1ccc(/N=N/c2ccccc2CCC(=O)OC2CCN(C(=O)[C@H](Cc3ccc(F)cc3)NC(=O)c3cc4cc(Cl)ncc4[nH]3)CC2)cc1)[C@H]1CC[C@H]2[C@@H]3[C@H](O)C[C@@H]4C[C@H](O)CC[C@]4(C)[C@H]3C[C@H](O)[C@]12C [Conjugate 9] | 51.7 ± 4.1 µM | 12.3 µM | 6.4 µM | stable | no more than 20% | 60.2 mL/min/kg | 91.2 min | 15.2 µL/min/mg | 172 to 174 °C | – | – | – | – | considerable metabolic stability | 12.3 ± 3.93 µM | 6.41 ± 1.25 µM | –
7 | CP316819 | – | – | – | – | – | – | – | – | – | – | – | – | – | – | – | – | 35%
